The target of one series is T1, human mGlu1 (Homo sapiens, UniProt Q13255).
T1 construct: expressed in transfected cells; pcDNA5/TO)
Kind of series: progressive fold-shift assay, operational model of allosterism. It is filed as cell-based. From the text: (§1) To further characterize this novel mGlu1 PAM, we performed progressive fold-shift assays at both human and rat mGlu1 (Figure 4).
(§2) Figure 4 Operational modeling of the effects of increasing concentrations of VU6024578 (19d) on rat (A) and human (B) mGlu1receptors. Increasing amounts of 19d were applied prior to increasing concentrations of glutamate at either rat or human mGlu1. Data were fit in GraphPad Prism as indicated in the Methods section; for panel A, log α was 0.95 and for panel B it was 1.26. Data represent one experiment performed in duplicate.

The target of a further series is rat mGlu1 (Rattus norvegicus, UniProt P23385). Described as above. The class given is cell-based.
rat mGlu1, sequence (P23385 19-1199): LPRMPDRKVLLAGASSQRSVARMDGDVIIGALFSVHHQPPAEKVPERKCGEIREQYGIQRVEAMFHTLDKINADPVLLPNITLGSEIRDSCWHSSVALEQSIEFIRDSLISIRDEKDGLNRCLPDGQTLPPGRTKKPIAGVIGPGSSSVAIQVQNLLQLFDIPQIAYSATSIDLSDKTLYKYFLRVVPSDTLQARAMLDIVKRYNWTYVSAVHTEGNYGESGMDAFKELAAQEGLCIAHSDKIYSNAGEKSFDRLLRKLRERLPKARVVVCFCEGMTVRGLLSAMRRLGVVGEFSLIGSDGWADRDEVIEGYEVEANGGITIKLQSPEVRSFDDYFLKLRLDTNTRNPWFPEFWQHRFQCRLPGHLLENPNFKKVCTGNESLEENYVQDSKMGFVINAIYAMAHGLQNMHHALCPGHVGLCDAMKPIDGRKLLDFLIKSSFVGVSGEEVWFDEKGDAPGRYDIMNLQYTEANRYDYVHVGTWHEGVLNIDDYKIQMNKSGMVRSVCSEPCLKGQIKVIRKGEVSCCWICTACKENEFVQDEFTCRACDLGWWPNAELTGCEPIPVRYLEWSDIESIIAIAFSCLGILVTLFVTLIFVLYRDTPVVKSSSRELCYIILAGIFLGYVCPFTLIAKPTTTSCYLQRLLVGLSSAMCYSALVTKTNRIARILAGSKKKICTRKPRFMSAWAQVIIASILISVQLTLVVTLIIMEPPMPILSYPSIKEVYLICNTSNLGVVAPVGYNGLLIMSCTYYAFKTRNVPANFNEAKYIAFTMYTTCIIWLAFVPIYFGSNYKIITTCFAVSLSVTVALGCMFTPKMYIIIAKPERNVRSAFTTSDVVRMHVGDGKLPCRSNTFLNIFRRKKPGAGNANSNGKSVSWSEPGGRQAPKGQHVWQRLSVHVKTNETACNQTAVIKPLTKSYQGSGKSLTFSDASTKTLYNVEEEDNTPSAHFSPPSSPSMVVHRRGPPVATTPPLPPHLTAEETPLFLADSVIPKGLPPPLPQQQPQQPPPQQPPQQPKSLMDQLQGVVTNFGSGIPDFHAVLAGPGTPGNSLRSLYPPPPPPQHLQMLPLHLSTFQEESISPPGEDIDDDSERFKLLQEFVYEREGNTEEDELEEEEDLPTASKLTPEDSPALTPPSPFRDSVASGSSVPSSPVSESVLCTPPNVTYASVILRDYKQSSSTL
Source text: as §1, §2

A short description of series [1]: plasma protein binding, equilibrium dialysis. The following applies: fraction unbound. It is filed as in vitro ADME, rat. On the procedure:
The protein binding of each compound was determined in plasma via equilibrium dialysis employing RED Plates (ThermoFisher Scientific, Rochester, NY). Plasma was added to the 96 well plate containing test compound and mixed thoroughly for a final concentration of 5 μM. Subsequently, an aliquot of the plasma-compound mixture was transferred to the cis chamber (red) of the RED plate, with an phosphate buffer (25 mM, pH 7.4) in the trans chamber. The RED plate was sealed and incubated for 4 h at 37 °C with shaking. At completion, aliquots from each chamber were diluted 1:1 with either plasma (cis) or buffer (trans) and transferred to a new 96 well plate, at which time ice-cold acetonitrile containing internal standard (50 ng/mL carbamazepine) (2 volumes) was added to extract the matrices. The plate was centrifuged (3000 rcf, 10 min) and supernatants transferred and diluted 1:1 (supernatant: water) into a new 96 well plate, which was then sealed in preparation for LC/MS/MS analysis. Each compound was assayed in triplicate within the same 96-well plate. Fraction unbound was determined using the following equation [drawing 1]
(In general: Equilibrium dialysis compares concentrations on both sides of a semipermeable membrane.)

A short description of series [2]: brain homogenate binding. The class given is in vitro ADME, rat. As to conditions: fraction unbound.
Series [3] is described as follows: brain homogenate binding. The following applies: fraction unbound. It is filed as in vitro ADME, mouse.
Another series is described as follows: satellite PK for NOR. The class given is in vivo. The following applies: brain, rat, 210 min postdose. An excerpt:
Based on our previous work with the mGlu1 PAM 4,[6]−[9],[14]−[19] we first evaluated the ability of 19d to reverse MK-801 disruptions of novel object recognition (NOR) in rats (Figure 6).

A short description of series [4]: satellite PK for mouse AHL. It is filed as in vivo. An excerpt: In parallel with the rat AHL study, we carried out a mouse AHL study to determine if the PK/PD relationship would remain intact across rodent species.
A further series relates to male beagles. Briefly: adverse events in dog PK. It is filed as in vivo. The following applies: 0.5 mg/kg IV. On the procedure:
Deeper profiling began with IV dog PK (0.5 mg/kg, n = 3 male beagles). […] Was this a mechanism-based toxicity in dog? Could there be dog-specific pharmacology of mGlu1 activation? Were these AEs derived from the 19d chemotype? Could a mGlu1/mGlu5 heterodimer be responsible for the observed AEs? […] In an attempt to address the chemotype question, we evaluated PAM 4 (VU6004909),[8] an early generation rodent in vivo tool compound, for the first time in dog PK. […] of the study with 19d, PAM 4 produced no AEs in dog. […] Therefore, more molecular pharmacology and PK studies as well as additional chemically distinct mGlu1 PAM chemotypes are required to understand the AEs elicited by an mGlu1 PAM in dogs, an otherwise very promising target for the treatment of schizophrenia.

For a further series, the system named is TNF-alpha. Kind of series: Eurofins radioligand binding panel. On the set-up: species or system human. The following applies: agonist radioligand. An excerpt: (§3) Table S1. Eurofins Lead Profiling Screen Data
(§4) This is a radioligand binding panel of 80 targets including GPCRs, ion channels, transporters and nuclear hormones. Biochemical assay results are presented as the percent inhibition of specific […]
(§5) Results showing an inhibition or stimulation higher than 50% are considered to represent significant effect and are highlighted

Another series deals with sigma (non-selective). Briefly: Eurofins radioligand binding panel. The arrangement: species or system human. The following applies: agonist radioligand.
Source text: as §3, §4, §5

In a further series the target is T2, 5-HT1A (Homo sapiens, UniProt P08908).
T2 construct: Eurofins
T2 sequence (P08908 whole entry): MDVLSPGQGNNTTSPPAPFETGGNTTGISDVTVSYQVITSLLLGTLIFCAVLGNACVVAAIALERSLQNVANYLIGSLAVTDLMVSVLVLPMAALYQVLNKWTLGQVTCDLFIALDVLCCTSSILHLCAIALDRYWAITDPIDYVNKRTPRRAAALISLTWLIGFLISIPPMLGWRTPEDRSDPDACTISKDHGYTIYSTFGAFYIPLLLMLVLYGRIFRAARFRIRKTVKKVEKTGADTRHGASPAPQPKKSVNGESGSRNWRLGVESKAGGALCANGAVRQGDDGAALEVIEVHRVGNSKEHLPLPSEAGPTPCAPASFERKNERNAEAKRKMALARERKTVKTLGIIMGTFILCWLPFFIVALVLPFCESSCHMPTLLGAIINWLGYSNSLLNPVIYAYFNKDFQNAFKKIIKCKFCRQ
Kind of series: Eurofins radioligand binding panel. The following applies: agonist radioligand.
Source text: as §3, §4
Results showing an inhibition or stimulation higher than 50% are considered to represent significant effect and are highlighted […]
Target / Protein Species % Inhibition at 10
Adenosine A1 (antagonist radioligand) human 8
Adenosine A2A (agonist radioligand) human -1
Adenosine A3 (agonist radioligand) human 23
Adrenergic alpha 1 (non-selective) (antagonist radioligand) rat 19
Adrenergic alpha 2 (non-selective) (antagonist radioligand) rat 1
Adrenergic beta 1 (agonist radioligand) human 1
Adrenergic beta 2 (antagonist radioligand) human -1
AT1 (antagonist radioligand) human -1
AT2 (agonist radioligand) human 2 […]
BB (non-selective) (agonist radioligand) rat -20
B2 (agonist radioligand) human 7
CGRP (agonist radioligand) human 1
CB1 (agonist radioligand) human 0
CCK1 (CCKA) (agonist radioligand) human 7
CCK2 (CCKB) (agonist radioligand) human -4

Structures are written as SMILES. Where two headings read alike, the source gives them in different places.

T1 sequence (Q13255 19-1194): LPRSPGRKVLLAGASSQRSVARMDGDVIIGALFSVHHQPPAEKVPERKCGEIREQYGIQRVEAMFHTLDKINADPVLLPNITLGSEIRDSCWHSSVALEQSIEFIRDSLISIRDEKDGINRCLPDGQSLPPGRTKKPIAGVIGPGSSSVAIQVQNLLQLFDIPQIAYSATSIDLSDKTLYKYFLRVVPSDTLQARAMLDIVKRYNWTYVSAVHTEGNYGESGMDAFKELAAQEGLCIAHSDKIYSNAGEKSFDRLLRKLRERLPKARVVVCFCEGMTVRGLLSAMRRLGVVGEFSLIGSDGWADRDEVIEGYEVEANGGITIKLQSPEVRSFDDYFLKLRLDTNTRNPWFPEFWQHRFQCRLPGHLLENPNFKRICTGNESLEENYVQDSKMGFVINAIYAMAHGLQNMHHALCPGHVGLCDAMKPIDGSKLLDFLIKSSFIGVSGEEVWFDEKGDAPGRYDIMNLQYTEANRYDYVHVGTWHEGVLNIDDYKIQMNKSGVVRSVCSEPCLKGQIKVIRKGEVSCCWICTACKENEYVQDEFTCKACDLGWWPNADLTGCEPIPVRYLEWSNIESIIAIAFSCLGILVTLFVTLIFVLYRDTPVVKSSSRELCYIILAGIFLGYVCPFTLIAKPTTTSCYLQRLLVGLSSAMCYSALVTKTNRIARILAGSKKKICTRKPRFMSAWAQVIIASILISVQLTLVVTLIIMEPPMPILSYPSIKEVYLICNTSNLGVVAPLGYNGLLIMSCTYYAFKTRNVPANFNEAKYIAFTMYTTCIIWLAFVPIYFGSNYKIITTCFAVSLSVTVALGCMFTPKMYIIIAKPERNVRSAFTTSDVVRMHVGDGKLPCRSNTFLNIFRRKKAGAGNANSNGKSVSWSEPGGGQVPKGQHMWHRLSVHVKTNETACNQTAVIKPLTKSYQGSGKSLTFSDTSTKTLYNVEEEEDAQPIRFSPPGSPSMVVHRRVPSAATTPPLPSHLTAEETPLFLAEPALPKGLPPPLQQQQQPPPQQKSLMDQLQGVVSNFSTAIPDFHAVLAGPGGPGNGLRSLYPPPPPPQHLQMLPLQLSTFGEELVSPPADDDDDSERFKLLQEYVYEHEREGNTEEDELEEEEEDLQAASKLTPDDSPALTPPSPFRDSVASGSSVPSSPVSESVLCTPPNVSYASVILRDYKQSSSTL

As to `Cn1nc(-c2ccnn2C)cc1CNC(=O)c1cc(-c2ccco2)ccc1Cl` [Compound 19d, 2-Chloro-N-((1,2′-dimethyl-1H,2’H-[3,3′-bipyrazol]-5-yl)methyl)-5-(furan-2-yl)benzamide], the Kb at human mGlu1 (human mGlu1, operational model of allosterism, read-out: estimated KB) is 219 nM; at rat mGlu1 (rat mGlu1, operational model of allosterism, read-out: estimated KB), 1040 nM; at rat mGlu1 (rat mGlu1, printed in Figure 4A, read-out: KB), 1040 nM. The “log α” value at human mGlu1 (panel B (human), one experiment in duplicate) is 1.26; at rat mGlu1 (panel A (rat), one experiment in duplicate), 0.95. Also, the EC50 (commonly the concentration needed to bring the measured effect to its halfway point) at human mGlu1 (printed in Figure 4B) came out at 46 nM; on rat mGlu1 (in Figure 4A), 44 nM. For the same molecule, the rat fuplasma in series [1] worked out at 0.041. In “brain homogenate binding [2]”, this molecule gave a rat fubrain of 0.034. The “fu (brain), mouse” value in the series “brain homogenate binding [3]” came out at 0.081. Further, in “satellite PK for NOR” (10 mg/kg PO, read-out: free brain concentration), the concentration at 210 min stood at 73 nM. Also, the Kp at 3.5 h in the series “satellite PK for NOR” (PO) was found to be 0.34. The free brain concentration in series [4] (10 mg/kg) was found to be 36 nM; in series [4] (30 mg/kg), 67 nM. Also, the “free brain concentration over the EC50” value in [4] (10 mg/kg) is 1.3 fold; in [4] (30 mg/kg) it was 2.5 fold. For the same molecule, the “adverse events (AEs) in dog” value in the series with male beagles (0.5 mg/kg) is “GI-salivation and rigidity”; in the series on male beagles (listed as VU6024578/BI02982816, 0.5 mg/kg), “unanticipated AEs”. For the same molecule, the “time of AEs postdose” value in the series on male beagles (at Cmax) is 1 to 3 min. Also, the % Inhibition (commonly the relative decrease from the control value, in per cent) at 10 µM is listed as 2% in the series with TNF-alpha and -11% in the series with sigma (non-selective). Further, the inhibition (commonly the percentage by which the read-out fell short of the control) at 10 µM on 5-HT1A amounted to 51%.

These data come from PMC11684029, “Discovery of VU6024578/BI02982816: An mGlu1 Positive Allosteric Modulator with Efficacy in Preclinical Antipsychotic and Cognition Models” (Journal of Medicinal Chemistry, 2024).
